Tests used:
[1] = tested on: T1, periplasmic L-ASNase (PCH199 L-ASNase, type II); test: Michaelis-Menten non-linear regression (assay details not told); assay type: biochemical, Pseudomonas sp. PCH199; conditions: 0.02-0.5 mM substrate; assay pH and temperature not stated for L-glutamine
T1 construct: gene ansB; native, purified from periplasm by osmotic shock (ammonium sulfate, Q-Sepharose, Superdex 200)

[2] = tested on: T1, periplasmic L-ASNase (PCH199 L-ASNase, type II); test: Nessler ammonia assay at […] nm, non-linear Michaelis-Menten fit; assay type: biochemical, Pseudomonas sp. PCH199; conditions: 0.1-3.0 mM substrate; standard assay 50 mM Tris-HCl pH 8.5, 37 ℃ (temperature of the kinetic run not restated)

With `NC(=O)CC[C@H](N)C(=O)O` [L-glutamine] the Km [1] was 34 µM.

Work on `NC(=O)C[C@H](N)C(=O)O` [L-asparagine] yielded a Km [2] of 164 ± 9 µM.

Source: publication PMC9958223, “Biochemical characterization of extremozyme L-asparaginase from Pseudomonas sp. PCH199 for therapeutics” (AMB Express, 2023)
